Results on seven compounds are retold here after US11319329B2, “Inhibitors of Bruton's tyrosine kinase and methods of their use” (JANSSEN PHARMACEUTICA NV, priority 2015, dated 2022).

The target of this assay is unphosphorylated-BTK kinase domain (UP-BTK), GST-tagged human BTK (389-659aa) (Homo sapiens (Human), UniProt Q06187). Put plainly: BTK kinase Lanthascreen binding assay. As to conditions: for BTK_I_binding pIC50: negative log of the IC50 in molar, 60 minutes incubation. Here is the method:
BTK Kinase Lanthascreen Binding Assay:
A BTK kinase lanthascreen binding assay monitors compound binding to unphosphorylated-BTK kinase domain (UP-BTK), by competing with a fluorescent labeled tracer. […] Data were analyzed using Xlfit™ version 5.3 from ID Business Solutions (Guildford), Microsoft Excel add-in. pIC50 refers to the negative log of the IC50 in molar
Background: In TR-FRET formats the signal depends on donor and acceptor labels being close together.

[1] abbreviates: unphosphorylated BTK kinase domain, Lanthascreen.

Sequence of unphosphorylated-BTK kinase domain (UP-BTK), GST-tagged human BTK (389-659aa) (Q06187 389-659): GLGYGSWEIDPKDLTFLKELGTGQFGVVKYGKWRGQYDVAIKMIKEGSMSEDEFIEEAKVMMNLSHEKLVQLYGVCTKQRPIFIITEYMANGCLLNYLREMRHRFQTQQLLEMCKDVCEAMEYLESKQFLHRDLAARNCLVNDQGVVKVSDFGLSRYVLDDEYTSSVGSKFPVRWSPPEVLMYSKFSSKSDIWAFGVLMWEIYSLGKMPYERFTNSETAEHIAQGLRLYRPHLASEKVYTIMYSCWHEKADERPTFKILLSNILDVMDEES

Regarding `C=CC(=O)N[C@H]1CCC[C@H]1NC(=O)c1sc2nccc3c2c1NC(=O)N3c1ccc(Oc2cccnc2)cc1` (relative stereo) [Example 300, N-((1R,2S)-2-Acrylamidocyclopentyl)-4-oxo-5-(*S)-(4-(pyridin-3-yloxy)phen)-4,5-dihydro-3H-1-thia-3,5,8-triazaacenaphthylene-2-carboxamide], the “BTK_I_binding pIC50” value (50 nM Tracer 236) turned out to be 8.27.
Consider `Cc1cc(Oc2ccccc2)ccc1N1C(=O)Nc2c(C(=O)N[C@@H]3CCC[C@H]3O)sc3nccc1c23` (single isomer, unassigned) [Example 4], for which the “BTK_I_binding pIC50” value under setting [1] was found to be 7.73.
As to `Cc1cc(Oc2ccccc2)ccc1N1C(=O)Nc2c(C(=O)N[C@H]3CC[C@H](O)CC3)sc3nccc1c23` (single isomer, unassigned) [Example 85, N-((1R,4R)-4-Hydroxycyclohexyl)-5-(*S)-(2-methyl-4-phenoxyphenyl)-4-oxo-4,5-dihydro-3H-1-thia-3,5,8-triazaacenaphthylene-2-carboxamide], the IC50 (read-out: BTK_I_binding pIC50 (converted)) is 21.4 nM.
`C=CC(=O)NC1CCCC[C@H]1NC(=O)c1sc2nccc3c2c1NC(=O)N3c1cnc(OCC(C)C)cc1C` (single isomer, unassigned) [Example 352, N-((1R,2S)-2-Acrylamidocyclohexyl)-5-(*R)-(6-isobutoxy-4-methylpyridin-3-yl)-4-oxo-4,5-dihydro-3H-1-thia-3,5,8-triazaacenaphthylene-2-carboxamide]: the “BTK_I_binding pIC50” value (50 nM Tracer 236) is below 6.
Regarding `CCC(=O)N[C@H]1CCC[C@H]1NC(=O)c1sc2nccc3c2c1NC(=O)N3c1ccc(Oc2ccccc2)nc1C` (single isomer, unassigned) [Example 353, 5-(*S)-(2-Methyl-6-phenoxypyridin-3-yl)-4-oxo-N-((1R,2R)-2-propionamidocyclopentyl)-4,5-dihydro-3H-1-thia-3,5,8-triazaacenaphthylene-2-carboxamide], where the note is “50 nM Tracer 236”, the “BTK_I_binding pIC50” value was below 6.
On to `C=CC(=O)N[C@H]1CCCC[C@H]1NC(=O)c1sc2nccc3c2c1NC(=O)N3c1cnc(CC(C)C)cc1C` (single isomer, unassigned) [Example 357, N-((1R,2S)-2-Acrylamidocyclohexyl)-5-(*S)-(6-isobutyl-4-methylpyridin-3-yl)-4-oxo-4,5-dihydro-3H-1-thia-3,5,8-triazaacenaphthylene-2-carboxamide], for which the “BTK_I_binding pIC50” value (50 nM Tracer 236) was 7.98.
For the compound `Cc1cc(Oc2ccccc2)ccc1N1C(=O)Nc2c(C(=O)N[C@H]3CCCC[C@@H]3NC=O)sc3nccc1c23` [Example 54, N-((1S,2S)-2-Formamidocyclohexyl)-5-(2-methyl-4-phenoxyphenyl)-4-oxo-4,5-dihydro-3H-1-thia-3,5,8-triazaacenaphthylene-2-carboxamide], the “BTK_I_binding pIC50” value under setting [1] came to 5.90.
